{"source": "the supplement of paper PMC10307832", "experiment_in_all_cases": "relative viability (nuclei count vs DMSO), 5 days (fraction); higher = more cells survive", "key": {"HCC-44": {"test_system": "HCC-44", "in_short": "(§1)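 The day after seeding in 1536-well plates, lung cancer cell lines were treated by pin tool with a single drug, or with a fixed anchor-drug dose together with five library-drug doses (not always all listed) in √10 steps. After 5 days, a combined fix-and-stain solution (final 0.05% Triton X-100, 1% formaldehyde, 1 ug/ml Hoechst) was added. Nuclei counted on 4× images gave relative viability as treated counts over vehicle counts, reported as the median of duplicate plates.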"}, "LOU-NH91": {"test_system": "LOU-NH91", "in_short": "as §1"}, "LXF-289": {"test_system": "LXF-289", "in_short": "as §1"}, "NCI-H1437": {"test_system": "NCI-H1437", "in_short": "as §1"}, "NCI-H1623": {"test_system": "NCI-H1623", "in_short": "as §1"}, "NCI-H2085": {"test_system": "NCI-H2085", "in_short": "as §1"}, "NCI-H3122": {"test_system": "NCI-H3122", "in_short": "as §1"}, "A549": {"test_system": "A549", "in_short": "as §1"}, "Calu-6": {"test_system": "Calu-6", "in_short": "as §1"}, "EBC-1": {"test_system": "EBC-1", "in_short": "as §1"}, "HCC-366": {"test_system": "HCC-366", "in_short": "as §1"}, "IA-LM": {"test_system": "IA-LM", "in_short": "as §1"}, "NCI-H1299": {"test_system": "NCI-H1299", "in_short": "as §1"}, "NCI-H1703": {"test_system": "NCI-H1703", "in_short": "as §1"}}}
{"smiles": "Cc1sc2c(c1C)C(c1ccc(Cl)cc1)=N[C@@H](CC(=O)OC(C)(C)C)c1nnc(C)n1-2", "note": "[JQ1] + CCNC(=O)c1noc(-c2cc(C(C)C)c(O)cc2O)c1-c1ccc(CN2CCOCC2)cc1 [Luminespib] (partner 0.01 µM)", "values": [{"measurement": "relative viability", "setting": "HCC-44; first compound 0.04 µM", "value": 0.968}, {"measurement": "relative viability", "setting": "HCC-44; first compound 0.1265 µM", "value": 0.433}, {"measurement": "relative viability", "setting": "HCC-44; first compound 0.4 µM", "value": 0.551}, {"measurement": "relative viability", "setting": "HCC-44; first compound 1.265 µM", "value": 0.388}, {"measurement": "relative viability", "setting": "HCC-44; first compound 4 µM", "value": 0.153}, {"measurement": "relative viability", "setting": "LOU-NH91; first compound 0.04 µM", "value": 0.371}, {"measurement": "relative viability", "setting": "LOU-NH91; first compound 0.1265 µM", "value": 0.371}, {"measurement": "relative viability", "setting": "LOU-NH91; first compound 0.4 µM", "value": 0.31}, {"measurement": "relative viability", "setting": "LOU-NH91; first compound 1.265 µM", "value": 0.285}, {"measurement": "relative viability", "setting": "LOU-NH91; first compound 4 µM", "value": 0.271}, {"measurement": "relative viability", "setting": "LXF-289; first compound 0.04 µM", "value": 0.675}, {"measurement": "relative viability", "setting": "LXF-289; first compound 0.1265 µM", "value": 0.601}, {"measurement": "relative viability", "setting": "LXF-289; first compound 0.4 µM", "value": 0.597}, {"measurement": "relative viability", "setting": "LXF-289; first compound 1.265 µM", "value": 0.495}, {"measurement": "relative viability", "setting": "LXF-289; first compound 4 µM", "value": 0.541}, {"measurement": "relative viability", "setting": "NCI-H1437; first compound 0.04 µM", "value": 1.1}, {"measurement": "relative viability", "setting": "NCI-H1437; first compound 0.1265 µM", "value": 1.09}, {"measurement": "relative viability", "setting": "NCI-H1437; first compound 0.4 µM", "value": 1.11}, {"measurement": "relative viability", "setting": "NCI-H1437; first compound 1.265 µM", "value": 0.617}, {"measurement": "relative viability", "setting": "NCI-H1437; first compound 4 µM", "value": 0.393}, {"measurement": "relative viability", "setting": "NCI-H1623; first compound 0.04 µM", "value": 0.543}, {"measurement": "relative viability", "setting": "NCI-H1623; first compound 0.1265 µM", "value": 0.593}, {"measurement": "relative viability", "setting": "NCI-H1623; first compound 0.4 µM", "value": 0.459}, {"measurement": "relative viability", "setting": "NCI-H1623; first compound 1.265 µM", "value": 0.466}, {"measurement": "relative viability", "setting": "NCI-H1623; first compound 4 µM", "value": 0.418}, {"measurement": "relative viability", "setting": "NCI-H2085; first compound 0.04 µM", "value": 0.387}, {"measurement": "relative viability", "setting": "NCI-H2085; first compound 0.1265 µM", "value": 0.434}, {"measurement": "relative viability", "setting": "NCI-H2085; first compound 0.4 µM", "value": 0.386}, {"measurement": "relative viability", "setting": "NCI-H2085; first compound 1.265 µM", "value": 0.248}, {"measurement": "relative viability", "setting": "NCI-H2085; first compound 4 µM", "value": 0.182}, {"measurement": "relative viability", "setting": "NCI-H3122; first compound 0.04 µM", "value": 0.0811}, {"measurement": "relative viability", "setting": "NCI-H3122; first compound 0.1265 µM", "value": 0.0744}, {"measurement": "relative viability", "setting": "NCI-H3122; first compound 0.4 µM", "value": 0.162}, {"measurement": "relative viability", "setting": "NCI-H3122; first compound 1.265 µM", "value": 0.0911}, {"measurement": "relative viability", "setting": "NCI-H3122; first compound 4 µM", "value": 0.131}]}
{"smiles": "Cc1sc2c(c1C)C(c1ccc(Cl)cc1)=N[C@@H](CC(=O)OC(C)(C)C)c1nnc(C)n1-2", "note": "[JQ1] + COc1cc2c(Oc3ccc(NC(=O)C4(C(=O)Nc5ccc(F)cc5)CC4)cc3F)ccnc2cc1OCCCN1CCOCC1 [Foretinib] (partner 0.25 µM)", "values": [{"measurement": "relative viability", "setting": "A549; first compound 0.04 µM", "value": 0.881}, {"measurement": "relative viability", "setting": "A549; first compound 0.1265 µM", "value": 0.76}, {"measurement": "relative viability", "setting": "A549; first compound 0.4 µM", "value": 0.878}, {"measurement": "relative viability", "setting": "A549; first compound 1.265 µM", "value": 0.32}, {"measurement": "relative viability", "setting": "A549; first compound 4 µM", "value": 0.194}, {"measurement": "relative viability", "setting": "Calu-6; first compound 0.04 µM", "value": 0.848}, {"measurement": "relative viability", "setting": "Calu-6; first compound 0.1265 µM", "value": 0.79}, {"measurement": "relative viability", "setting": "Calu-6; first compound 0.4 µM", "value": 0.756}, {"measurement": "relative viability", "setting": "Calu-6; first compound 1.265 µM", "value": 0.478}, {"measurement": "relative viability", "setting": "Calu-6; first compound 4 µM", "value": 0.406}, {"measurement": "relative viability", "setting": "EBC-1; first compound 0.04 µM", "value": 0.098}, {"measurement": "relative viability", "setting": "EBC-1; first compound 0.1265 µM", "value": 0.0891}, {"measurement": "relative viability", "setting": "EBC-1; first compound 0.4 µM", "value": 0.0572}, {"measurement": "relative viability", "setting": "EBC-1; first compound 1.265 µM", "value": 0.0617}, {"measurement": "relative viability", "setting": "EBC-1; first compound 4 µM", "value": 0.0624}, {"measurement": "relative viability", "setting": "HCC-366; first compound 0.04 µM", "value": 0.994}, {"measurement": "relative viability", "setting": "HCC-366; first compound 0.4 µM", "value": 0.827}, {"measurement": "relative viability", "setting": "HCC-366; first compound 1.265 µM", "value": 0.359}, {"measurement": "relative viability", "setting": "HCC-366; first compound 4 µM", "value": 0.266}, {"measurement": "relative viability", "setting": "IA-LM; first compound 0.04 µM", "value": 0.943}, {"measurement": "relative viability", "setting": "IA-LM; first compound 0.1265 µM", "value": 0.645}, {"measurement": "relative viability", "setting": "IA-LM; first compound 0.4 µM", "value": 0.224}, {"measurement": "relative viability", "setting": "IA-LM; first compound 1.265 µM", "value": 0.0743}, {"measurement": "relative viability", "setting": "IA-LM; first compound 4 µM", "value": 0.0831}, {"measurement": "relative viability", "setting": "LOU-NH91; first compound 0.04 µM", "value": 0.944}, {"measurement": "relative viability", "setting": "LOU-NH91; first compound 0.1265 µM", "value": 0.777}, {"measurement": "relative viability", "setting": "LOU-NH91; first compound 0.4 µM", "value": 0.618}, {"measurement": "relative viability", "setting": "LOU-NH91; first compound 1.265 µM", "value": 0.625}, {"measurement": "relative viability", "setting": "LOU-NH91; first compound 4 µM", "value": 0.482}, {"measurement": "relative viability", "setting": "LXF-289; first compound 0.04 µM", "value": 0.955}, {"measurement": "relative viability", "setting": "LXF-289; first compound 0.1265 µM", "value": 0.978}, {"measurement": "relative viability", "setting": "LXF-289; first compound 0.4 µM", "value": 0.762}, {"measurement": "relative viability", "setting": "LXF-289; first compound 1.265 µM", "value": 0.758}, {"measurement": "relative viability", "setting": "LXF-289; first compound 4 µM", "value": 0.69}, {"measurement": "relative viability", "setting": "NCI-H1299; first compound 0.04 µM", "value": 1.03}, {"measurement": "relative viability", "setting": "NCI-H1299; first compound 0.1265 µM", "value": 0.947}, {"measurement": "relative viability", "setting": "NCI-H1299; first compound 0.4 µM", "value": 0.819}, {"measurement": "relative viability", "setting": "NCI-H1299; first compound 1.265 µM", "value": 0.558}, {"measurement": "relative viability", "setting": "NCI-H1299; first compound 4 µM", "value": 0.34}, {"measurement": "relative viability", "setting": "NCI-H1437; first compound 0.04 µM", "value": 1.11}, {"measurement": "relative viability", "setting": "NCI-H1437; first compound 0.1265 µM", "value": 1.23}, {"measurement": "relative viability", "setting": "NCI-H1437; first compound 0.4 µM", "value": 1.03}, {"measurement": "relative viability", "setting": "NCI-H1437; first compound 1.265 µM", "value": 0.464}, {"measurement": "relative viability", "setting": "NCI-H1437; first compound 4 µM", "value": 0.384}, {"measurement": "relative viability", "setting": "NCI-H1623; first compound 0.04 µM", "value": 0.878}, {"measurement": "relative viability", "setting": "NCI-H1623; first compound 0.1265 µM", "value": 0.809}, {"measurement": "relative viability", "setting": "NCI-H1623; first compound 0.4 µM", "value": 0.716}, {"measurement": "relative viability", "setting": "NCI-H1623; first compound 1.265 µM", "value": 0.496}, {"measurement": "relative viability", "setting": "NCI-H1623; first compound 4 µM", "value": 0.441}, {"measurement": "relative viability", "setting": "NCI-H1703; first compound 0.04 µM", "value": 0.298}, {"measurement": "relative viability", "setting": "NCI-H1703; first compound 0.1265 µM", "value": 0.284}, {"measurement": "relative viability", "setting": "NCI-H1703; first compound 0.4 µM", "value": 0.313}, {"measurement": "relative viability", "setting": "NCI-H1703; first compound 1.265 µM", "value": 0.318}, {"measurement": "relative viability", "setting": "NCI-H1703; first compound 4 µM", "value": 0.332}, {"measurement": "relative viability", "setting": "NCI-H2085; first compound 0.04 µM", "value": 0.855}, {"measurement": "relative viability", "setting": "NCI-H2085; first compound 0.1265 µM", "value": 0.821}, {"measurement": "relative viability", "setting": "NCI-H2085; first compound 0.4 µM", "value": 0.578}, {"measurement": "relative viability", "setting": "NCI-H2085; first compound 1.265 µM", "value": 0.428}, {"measurement": "relative viability", "setting": "NCI-H2085; first compound 4 µM", "value": 0.37}, {"measurement": "relative viability", "setting": "NCI-H3122; first compound 0.04 µM", "value": 1.04}, {"measurement": "relative viability", "setting": "NCI-H3122; first compound 0.1265 µM", "value": 0.814}, {"measurement": "relative viability", "setting": "NCI-H3122; first compound 0.4 µM", "value": 0.766}, {"measurement": "relative viability", "setting": "NCI-H3122; first compound 1.265 µM", "value": 0.698}, {"measurement": "relative viability", "setting": "NCI-H3122; first compound 4 µM", "value": 0.532}]}
